≈ marks a conversion by molar mass, not a printed value.
Assays:
K562 = assay: Cytotoxicity against human K562 cells by colorimetric assay; type: functional, cell-based
P388 = assay: Cytotoxicity against mouse P388 cells; type: functional, cell-based; conditions: Mus musculus, P388; read-out: IC50
HeLa S3 = assay: Cytotoxicity against human HeLa S3 cells; type: functional, cell-based; conditions: Homo sapiens, HeLa S3; read-out: IC50
A549 = assay: Cytotoxicity against human A549 cells incubated for 72 hrs by MTT assay; type: functional, cell-based; conditions: A549, 72 h
MIA PaCa-2 = assay: Cytotoxicity against human MIA PaCa-2 cells assessed as reduction in cell viability incubated for 48 hrs by MTS assay; type: functional, cell-based; conditions: MIA PaCa-2, time 48 hrs
PC-3 = assay: Cytotoxicity against human PC-3 cells assessed as reduction in cell viability incubated for 48 hrs by MTS assay; type: functional, cell-based; conditions: PC-3, time 48 hrs
JIMT-1 = assay: Cytotoxicity against human JIMT-1 cells assessed as reduction in cell viability incubated for 48 hrs by MTS assay; type: functional, cell-based; conditions: JIMT-1, time 48 hrs
DU-145 = assay: Cytotoxicity against human DU-145 cells assessed as reduction in cell viability incubated for 48 hrs by MTS assay; type: functional, cell-based; conditions: DU-145, time 48 hrs
BT-474 = assay: Cytotoxicity against human BT-474 cells assessed as reduction in cell viability incubated for 48 hrs by MTS assay; type: functional, cell-based; conditions: BT-474, time 48 hrs
KB = assay: Cytotoxicity against human KB cells assessed as inhibition of cell growth by measuring effective dose; type: functional; conditions: read-out: ED50 (the source's name)

CCCCCCCCCCCCCCCCCCOCC(COC(=O)NCCCO[C@@H]1O[C@H](CO)[C@H](O)[C@H](O)[C@H]1O)OCC (some centres not stated)
IC50 (K562): 17 µM

CO[C@@H]1[C@H](O[C@@H]2CO[C@@H](O[C@@H]3[C@@H](O)[C@H](O)CO[C@H]3N3C(=O)/C(=C(O)/C=C/C=C/C=C/C=C/C=C(Cl)/C=C/C=C/C=C/[C@@H]4O[C@H](C)C[C@@H]4Cl)C(=O)[C@@H]3CC(N)=O)[C@@H](O)[C@@H]2O)O[C@H](C)[C@H]1O
IC50 (P388): 0.2 µg/mL (≈ 0.213 µM)

CO[C@@H]1[C@@H](OC(N)=O)[C@@H](OC)[C@H](O[C@@H]2C[C@H]3O[C@@](O)(C2)[C@H](C)C(=O)O[C@@H](/C=C/C=C/Br)C/C(C)=C/C(=O)C3(C)C)O[C@H]1C
IC50 (HeLa S3): 1.2 µg/mL (≈ 1.78 µM)

CO[C@@H]1[C@H](O[C@@H]2CO[C@@H](O[C@@H]3[C@@H](O)[C@H](O)CO[C@H]3N3C(=O)/C(=C(O)/C=C/C=C/C=C/C=C/C=C(Cl)/C=C/C=C/[C@@H]4O[C@H](C)C[C@@H]4Cl)C(=O)[C@@H]3CC(N)=O)[C@@H](O)[C@@H]2O)O[C@H](C)[C@H]1O
IC50 (P388): 0.05 µg/mL (≈ 0.0547 µM)

CCCCCCCCCCCCC(=O)OCc1cn(C[C@H]2O[C@H](OC)[C@H](O)[C@@H](O)[C@@H]2O)nn1
IC50 (A549): 21 µM

CCCCCCCCCCCCCCCCCCOCC(CO[C@@H]1O[C@H](CO)[C@H](O)[C@H](O)[C@H]1O)OCC (some centres not stated)
IC50 (K562): 2.5 µM

CO[C@@H]1[C@@H](O)[C@@H](OC)[C@H](O[C@@H]2[C@@H](OC)[C@H](C)O[C@@H](O[C@@H]3C[C@H]4O[C@@](O)(C3)[C@H](C)C(=O)O[C@@H](/C=C/C=C/Br)C/C(C)=C/C(=O)C4(C)C)[C@@H]2OC)O[C@H]1C
IC50 (HeLa S3): 0.17 µg/mL (≈ 0.211 µM)

CCCCCCCCCCCCCCCCCCOCC(COC(=O)NCCCO[C@@H]1O[C@H](CO)[C@@H](O[C@@H]2O[C@H](CO)[C@H](O)[C@H](O)[C@H]2O)[C@H](O)[C@H]1O)OCC (some centres not stated)
IC50 (K562): 7 µM

CO[C@@H]1[C@H](O[C@@H]2CO[C@@H](O[C@@H]3[C@@H](O)[C@H](O)CO[C@H]3N3C(=O)/C(=C(O)/C=C/C=C/C=C/C=C/C=C(Cl)/C=C/C=C/[C@H]4O[C@H](C)C[C@@H]4Cl)C(=O)[C@@H]3CC(N)=O)[C@@H](O)[C@@H]2O)O[C@H](C)[C@H]1O
IC50 (P388): 0.2 µg/mL (≈ 0.219 µM)

C[C@@H]1C[C@H](Cl)[C@H](/C=C/C=C/C=C/C(Cl)=C/C=C/C=C/C=C/C=C/C(O)=C2\C(=O)[C@H](CC(N)=O)N([C@@H]3OC[C@@H](O)[C@H](O)[C@H]3O[C@@H]3OC[C@@H](O[C@@H]4O[C@H](C)[C@@H](O)[C@@H]4O)[C@@H](O)[C@@H]3O)C2=O)O1
IC50 (P388): > 5 µg/mL

CCCCCCCCCCCCCCCCOC[C@H](CN)O[C@@H]1O[C@@H](C)[C@H](O)[C@@H](O)[C@H]1O
CC50 (MIA PaCa-2): 8.5 µM
CC50 (PC-3): 11 µM
CC50 (JIMT-1): 5.5 µM
CC50 (DU-145): 8.2 µM

CCCCCCCCCCCCCCCCCCOCC(CO[C@H]1O[C@H](CO)[C@@H](O)[C@H](O)[C@@H]1O)OCC (some centres not stated)
IC50 (K562): 3 µM

C[C@@H]1C[C@H](Cl)[C@@H](/C(Cl)=C/C=C/C(Cl)=C/C=C/C=C/C=C/C=C/C(O)=C2\C(=O)[C@H](CC(N)=O)N([C@@H]3OC[C@@H](O)[C@H](O)[C@H]3O[C@@H]3OC[C@@H](O[C@@H]4O[C@H](C)[C@@H](O)[C@@H]4O)[C@@H](O)[C@@H]3O)C2=O)O1
IC50 (P388): 0.2 µg/mL (≈ 0.214 µM)

CCCCCCCCCCCCCCCCOC[C@H](CO[C@@H]1O[C@@H](CO)[C@H](O)[C@@H](O)[C@@H]1O)OC
CC50 (MIA PaCa-2): 7.5 µM
CC50 (PC-3): 12.5 µM
CC50 (BT-474): 11 µM
CC50 (JIMT-1): 6.5 µM
CC50 (DU-145): 12.5 µM

CCCCCCCCCCCC(=O)OCc1cn(C[C@H]2O[C@H](OC)[C@H](O)[C@@H](O)[C@@H]2O)nn1
IC50 (A549): 21 µM

CCCCCCCCCCCCCCCCCCOCC(COC(=O)NCCCO[C@H]1O[C@H](CO)[C@@H](O)[C@H](O)[C@@H]1O)OCC (some centres not stated)
IC50 (K562): 18 µM

CO[C@@H]1[C@H](O[C@@H]2CO[C@@H](O[C@@H]3[C@@H](O)[C@H](O)CO[C@H]3N3C(=O)/C(=C(O)/C=C/C=C/C=C/C=C/C=C(Cl)/C=C/C=C(\Cl)[C@H]4O[C@H](C)C[C@@H]4Cl)C(=O)[C@@H]3CC(N)=O)[C@@H](O)[C@@H]2O)O[C@H](C)[C@H]1O
IC50 (P388): 0.2 µg/mL (≈ 0.211 µM)

CCCCCCCCCCCCCCCCCCOCC(CO[C@@H]1O[C@H](CO)[C@@H](O[C@@H]2O[C@H](CO)[C@H](O)[C@H](O)[C@H]2O)[C@H](O)[C@H]1O)OCC (some centres not stated)
IC50 (K562): 18 µM

C/C=C(\C)C(=O)O[C@H]1[C@H](O)[C@@H](O)[C@H](O[C@@H]2[C@H]3OC(=O)CCCCCCCCC[C@H](CCCCC)O[C@@H]4O[C@H](C)[C@@H](O)[C@H](O)[C@H]4O[C@@H]4O[C@H](COC(=O)[C@@H](C)[C@H](C)O)[C@@H](O)[C@H](O)[C@H]4O[C@H](O[C@H]2C)[C@@H]3OC(=O)C(C)C)O[C@@H]1C [ORIZABIN XIII]
EC50 (KB): 1 µg/mL (≈ 0.903 µM)

C/C=C(\C)C(=O)O[C@H]1[C@H](O)[C@@H](O)[C@H](O[C@@H]2[C@H]3OC(=O)CCCCCCCCC[C@H](CCCCC)O[C@@H]4O[C@H](C)[C@@H](O)[C@H](O)[C@H]4O[C@@H]4O[C@H](COC(=O)[C@H](C)[C@@H](C)O)[C@@H](O)[C@H](O)[C@H]4O[C@H](O[C@H]2C)[C@@H]3OC(=O)C(C)C)O[C@@H]1C [ORIZABIN XII]
EC50 (KB): 1 µg/mL (≈ 0.903 µM)

C/C=C(\C)C(=O)O[C@H]1[C@H](O)[C@@H](O)[C@H](O[C@@H]2[C@H]3OC(=O)CCCCCCCCC[C@H](CCCCC)O[C@@H]4O[C@H](C)[C@@H](O)[C@H](O)[C@H]4O[C@@H]4O[C@H](COC(=O)[C@@H](C)CC)[C@@H](O)[C@H](O)[C@H]4O[C@H](O[C@H]2C)[C@@H]3OC(=O)[C@H](C)[C@@H](C)O)O[C@@H]1C [ORIZABIN XIV]
EC50 (KB): 1 µg/mL (≈ 0.892 µM)

CCCCC[C@H]1CCCCCCCCCC(=O)O[C@@H]2[C@@H](O[C@@H]3O[C@H](C)[C@@H](OC(=O)[C@@H](C)CC)[C@H](O)[C@H]3O)[C@H](C)O[C@@H](O[C@H]3[C@H](O[C@H]4[C@H](O1)O[C@H](C)[C@@H](O)[C@@H]4O)O[C@H](COC(=O)[C@@H](C)CC)[C@@H](O)[C@@H]3O)[C@@H]2OC(=O)[C@@H](C)[C@H](C)O [ORIZABIN XIX]
EC50 (KB): 1 µg/mL (≈ 0.89 µM)

C/C=C(\C)C(=O)O[C@H]1[C@H](O)[C@@H](O)[C@H](O[C@@H]2[C@H]3OC(=O)CCCCCCCCC[C@H](CCCCC)O[C@@H]4O[C@H](C)[C@@H](O)[C@H](O)[C@H]4O[C@@H]4O[C@H](COC(=O)C(C)C)[C@@H](O)[C@H](O)[C@H]4O[C@H](O[C@H]2C)[C@@H]3OC(=O)[C@@H](C)[C@H](C)O)O[C@@H]1C [ORIZABIN XI]
EC50 (KB): 1 µg/mL (≈ 0.903 µM)

CCCCC[C@H]1CCCCCCCCCC(=O)O[C@@H]2[C@@H](O[C@@H]3O[C@H](C)[C@@H](OC(=O)[C@@H](C)CC)[C@H](O)[C@H]3O)[C@H](C)O[C@@H](O[C@H]3[C@H](O[C@H]4[C@H](O1)O[C@H](C)[C@@H](O)[C@@H]4O)O[C@H](COC(=O)[C@@H](C)CC)[C@@H](O)[C@@H]3O)[C@@H]2OC(=O)[C@H](C)[C@@H](C)O [ORIZABIN XVIII]
EC50 (KB): 1 µg/mL (≈ 0.89 µM)

C/C=C(\C)C(=O)O[C@H]1[C@H](O)[C@@H](O)[C@H](O[C@@H]2[C@H]3OC(=O)CCCCCCCCC[C@H](CCCCC)O[C@@H]4O[C@H](C)[C@@H](O)[C@H](O)[C@H]4O[C@@H]4O[C@H](COC(=O)[C@@H](C)[C@H](C)O)[C@@H](O)[C@H](O)[C@H]4O[C@H](O[C@H]2C)[C@@H]3OC(=O)[C@@H](C)CC)O[C@@H]1C [ORIZABIN XVII]
EC50 (KB): 1 µg/mL (≈ 0.892 µM)

C/C=C(\C)C(=O)O[C@H]1[C@H](O)[C@@H](O)[C@H](O[C@@H]2[C@H]3OC(=O)CCCCCCCCC[C@H](CCCCC)O[C@@H]4O[C@H](C)[C@@H](O)[C@H](O)[C@H]4O[C@@H]4O[C@H](COC(=O)[C@H](C)[C@@H](C)O)[C@@H](O)[C@H](O)[C@H]4O[C@H](O[C@H]2C)[C@@H]3OC(=O)[C@@H](C)CC)O[C@@H]1C [ORIZABIN XVI]
EC50 (KB): 1 µg/mL (≈ 0.892 µM)

C/C=C(\C)C(=O)O[C@H]1[C@H](O)[C@@H](O)[C@H](O[C@@H]2[C@H]3OC(=O)CCCCCCCCC[C@H](CCCCC)O[C@@H]4O[C@H](C)[C@@H](O)[C@H](O)[C@H]4O[C@@H]4O[C@H](COC(=O)[C@@H](C)CC)[C@@H](O)[C@H](O)[C@H]4O[C@H](O[C@H]2C)[C@@H]3OC(=O)[C@@H](C)[C@H](C)O)O[C@@H]1C [ORIZABIN XV]
EC50 (KB): 1 µg/mL (≈ 0.892 µM)

CCCCC[C@H]1CCCCCCCCCC(=O)O[C@@H]2[C@@H](O[C@@H]3O[C@H](C)[C@@H](OC(=O)[C@@H](C)CC)[C@H](O)[C@H]3O)[C@H](C)O[C@@H](O[C@H]3[C@H](O[C@H]4[C@H](O1)O[C@H](C)[C@@H](O)[C@@H]4O)O[C@H](COC(=O)[C@@H](C)[C@H](C)O)[C@@H](O)[C@@H]3O)[C@@H]2OC(=O)[C@@H](C)CC [ORIZABIN XXI]
EC50 (KB): 1 µg/mL (≈ 0.89 µM)

CCCCC[C@H]1CCCCCCCCCC(=O)O[C@@H]2[C@@H](O[C@@H]3O[C@H](C)[C@@H](OC(=O)[C@@H](C)CC)[C@H](O)[C@H]3O)[C@H](C)O[C@@H](O[C@H]3[C@H](O[C@H]4[C@H](O1)O[C@H](C)[C@@H](O)[C@@H]4O)O[C@H](COC(=O)[C@H](C)[C@@H](C)O)[C@@H](O)[C@@H]3O)[C@@H]2OC(=O)[C@@H](C)CC [ORIZABIN XX]
EC50 (KB): 1 µg/mL (≈ 0.89 µM)

C/C=C(\C)C(=O)O[C@H]1[C@H](O)[C@@H](O)[C@H](O[C@@H]2[C@H]3OC(=O)CCCCCCCCC[C@H](CCCCC)O[C@@H]4O[C@H](C)[C@@H](O)[C@H](O)[C@H]4O[C@@H]4O[C@H](COC(=O)C(C)C)[C@@H](O)[C@H](O)[C@H]4O[C@H](O[C@H]2C)[C@@H]3OC(=O)[C@H](C)[C@@H](C)O)O[C@@H]1C [ORIZABIN X]
EC50 (KB): 1 µg/mL (≈ 0.903 µM)

From ChEMBL document CHEMBL5260828, “Amphiphilic glycoconjugates as potential anti-cancer chemotherapeutics” (Eur J Med Chem, 2018)
